# ChEMBL document CHEMBL1141841, “Biotransformation of the trichoderma metabolite 6-n-pentyl-2H-pyran-2-one (6PAP) by selected fungal isolates” (J Nat Prod, 1999)
# Activity calls are given as the source filed them. The rule behind the calls is not given here.
# Tested on: Botrytis cinerea
# Assay: Antimicrobial activity against Botrytis cinerea by spore germination assay
# Assay type: functional, organism-based
row,SMILES,Activity
1,CCCCCc1cccc(=O)o1,Active
2,CC(O)CCCc1cccc(=O)o1 (stereo not given),inactive
3,O=c1cccc(CCCCCO)o1,inactive
4,O=C(O)CCc1cccc(=O)o1,inactive
5,O=C(O)CCCCc1cccc(=O)o1,inactive
